Assay results reported in publication PMC10590419, “Structural and mechanistic insights into the inhibition of respiratory syncytial virus polymerase by a non-nucleoside inhibitor” (Communications Biology, 2023).
“And” between values parts separate entries of the source, which are not always exact repeats. Identical values can stand only once. Like-named read-outs stand apart in the source and are kept apart here.

Biological target: recombinant RSV L+P (Human respiratory syncytial virus A, UniProt P28887)
Experiment: Primed single nucleotide incorporation (SNI) gel assay, recombinant RSV L+P
Assay type: biochemical, Human RSV (strain A2)
Details: for pGCG formation, % inhbition / pGCGA formation, % inhbition / pGCGAA formation, % inhbition: le-11, +3 site
Method: RNA polymerase reaction samples consisted of 0.2 μM recombinant RSV L-P polymerase, 0.2 μM of an RNA template (Le11 or Tr14), and 400 μM of a short primer (sequences as indicated in the figures), mixed in a buffer containing 50 mM Tris pH 7.4, 2 mM dithiothreitol and 6 mM MgCl2. For the assay in Fig. 1d, reactions were started by adding 100 nM [α-^32P]GTP (3000 Ci/mmol) tracer and incubated at 30 °C for 10 min. […] Reactions were stopped by adding an equal volume of gel loading buffer containing 90% formamide, 50 mM EDTA, 0.05% Xylene Cyanol, and Bromophenol Blue. Samples were denatured at 95 °C for 5 min and run on a 22.5% polyacrylamide urea sequencing gel at 80 W. The gel was transferred onto a Whatman cellulose chromatography paper (Millipore Sigma) and dried on a gel dryer (Bio-Rad) for 1 h. The dried gel was exposed to a phosphor-screen, scanned on a Typhoon phosphorimager (GE Healthcare), and quantified using ImageQuant (GE Healthcare).

[1] = le-11, +1 site, 1 uM, replicates, 1 µM
[2] = tr-14, +1 site, 0.00390625 uM, replicates, 0.00390625 µM
[3] = tr-14, +1 site, 0.0078125 uM, replicates, 0.0078125 µM
[4] = tr-14, +1 site, 0.015625 uM, replicates, 0.015625 µM
[5] = tr-14, +1 site, 0.03125 uM, replicates, 0.03125 µM
[6] = tr-14, +1 site, 0.0625 uM, replicates, 0.0625 µM
[7] = tr-14, +1 site, 0.125 uM, replicates, 0.125 µM
[8] = tr-14, +1 site, 0.25 uM, replicates, 0.25 µM
[9] = tr-14, +1 site, 0.5 uM, replicates, 0.5 µM
[10] = tr-14, +1 site, 1 uM, replicates, 1 µM

recombinant RSV L+P, sequence (P28887 whole entry): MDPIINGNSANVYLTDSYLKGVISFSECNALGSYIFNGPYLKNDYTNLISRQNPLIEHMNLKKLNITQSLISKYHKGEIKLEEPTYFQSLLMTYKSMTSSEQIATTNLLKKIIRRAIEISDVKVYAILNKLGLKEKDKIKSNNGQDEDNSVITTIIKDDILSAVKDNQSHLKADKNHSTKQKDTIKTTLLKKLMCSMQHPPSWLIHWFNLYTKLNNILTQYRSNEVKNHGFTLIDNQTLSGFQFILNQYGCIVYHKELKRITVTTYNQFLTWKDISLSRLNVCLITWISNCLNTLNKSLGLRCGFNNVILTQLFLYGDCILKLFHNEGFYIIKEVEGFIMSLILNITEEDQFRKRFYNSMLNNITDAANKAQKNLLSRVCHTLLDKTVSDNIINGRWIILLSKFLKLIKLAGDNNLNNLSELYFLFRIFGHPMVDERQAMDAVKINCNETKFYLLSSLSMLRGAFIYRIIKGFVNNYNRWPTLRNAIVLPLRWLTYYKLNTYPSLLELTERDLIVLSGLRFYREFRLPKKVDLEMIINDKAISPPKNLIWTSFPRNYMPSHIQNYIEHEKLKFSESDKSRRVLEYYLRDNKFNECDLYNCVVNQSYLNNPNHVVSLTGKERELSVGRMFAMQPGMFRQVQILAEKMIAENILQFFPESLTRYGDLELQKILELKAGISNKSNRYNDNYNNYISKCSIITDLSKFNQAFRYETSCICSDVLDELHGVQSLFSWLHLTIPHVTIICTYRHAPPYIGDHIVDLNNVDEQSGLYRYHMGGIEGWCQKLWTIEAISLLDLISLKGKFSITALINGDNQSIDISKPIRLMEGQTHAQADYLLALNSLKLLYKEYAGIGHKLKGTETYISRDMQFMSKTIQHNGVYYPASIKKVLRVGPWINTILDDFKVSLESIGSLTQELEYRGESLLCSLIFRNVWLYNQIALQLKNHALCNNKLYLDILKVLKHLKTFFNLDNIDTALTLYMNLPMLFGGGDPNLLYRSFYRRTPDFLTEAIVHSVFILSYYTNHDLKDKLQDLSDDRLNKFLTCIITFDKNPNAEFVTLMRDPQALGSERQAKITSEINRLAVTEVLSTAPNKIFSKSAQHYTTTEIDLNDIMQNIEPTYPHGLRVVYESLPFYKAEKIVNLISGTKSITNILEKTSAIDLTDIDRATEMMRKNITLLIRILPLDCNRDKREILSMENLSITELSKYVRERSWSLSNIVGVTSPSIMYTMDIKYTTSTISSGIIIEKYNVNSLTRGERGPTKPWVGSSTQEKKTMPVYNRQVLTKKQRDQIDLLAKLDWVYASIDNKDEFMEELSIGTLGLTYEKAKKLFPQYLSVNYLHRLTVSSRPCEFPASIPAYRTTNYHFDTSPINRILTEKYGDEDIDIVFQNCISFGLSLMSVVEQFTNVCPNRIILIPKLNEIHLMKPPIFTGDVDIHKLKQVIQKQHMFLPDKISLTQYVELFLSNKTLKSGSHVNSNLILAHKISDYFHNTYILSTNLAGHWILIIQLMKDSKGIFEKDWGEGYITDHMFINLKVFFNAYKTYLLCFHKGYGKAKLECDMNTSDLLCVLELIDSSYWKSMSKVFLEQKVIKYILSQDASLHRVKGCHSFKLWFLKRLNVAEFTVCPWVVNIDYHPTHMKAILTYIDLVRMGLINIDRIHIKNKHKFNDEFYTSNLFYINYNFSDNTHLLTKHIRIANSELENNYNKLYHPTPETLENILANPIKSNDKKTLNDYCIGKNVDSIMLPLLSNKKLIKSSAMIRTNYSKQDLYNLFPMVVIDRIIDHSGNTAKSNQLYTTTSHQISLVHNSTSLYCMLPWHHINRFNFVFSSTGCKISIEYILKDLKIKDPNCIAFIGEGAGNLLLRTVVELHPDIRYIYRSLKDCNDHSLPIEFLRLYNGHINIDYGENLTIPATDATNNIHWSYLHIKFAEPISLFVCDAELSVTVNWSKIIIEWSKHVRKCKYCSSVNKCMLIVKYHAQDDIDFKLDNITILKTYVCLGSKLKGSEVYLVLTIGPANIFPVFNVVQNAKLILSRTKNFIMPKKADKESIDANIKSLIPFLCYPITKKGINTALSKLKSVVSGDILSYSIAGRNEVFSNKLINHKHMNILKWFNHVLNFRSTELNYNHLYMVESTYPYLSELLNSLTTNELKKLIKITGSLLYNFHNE
recombinant RSV L+P, sequence (P03421 whole entry, further chain): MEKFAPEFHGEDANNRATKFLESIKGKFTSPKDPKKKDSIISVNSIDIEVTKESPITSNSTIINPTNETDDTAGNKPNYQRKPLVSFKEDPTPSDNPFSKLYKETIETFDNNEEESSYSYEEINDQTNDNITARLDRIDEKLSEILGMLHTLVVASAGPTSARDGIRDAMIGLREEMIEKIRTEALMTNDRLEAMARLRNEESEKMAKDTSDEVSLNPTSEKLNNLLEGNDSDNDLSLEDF

## COc1cc(C(=O)NC[C@](O)(c2cc(C(C)(C)O)c(F)c(-c3ccc(F)cc3)n2)C(F)(F)F)cc2cc(C)nnc12 [JNJ-8003]
le-11, +1 site, 0.5 uM, replicates, read-out: pACG formation, % inhibition
  inhibition at 0.5 µM: 92.2%
le-11, +1 site, 0.5 uM, replicates, read-out: pACGC formation, % inhibition
  inhibition at 0.5 µM: 16.5%
le-11, +1 site, 0.5 uM, replicates, read-out: pACGCG formation, % inhibition
  inhibition at 0.5 µM: 92%
[1]
  pACG formation, % inhibition: 87.3809%
  pACGCG formation, % inhibition: 94.5412%
le-11, +1 site, 1 uM, replicates, read-out: pACG formation, % inhibition
  inhibition at 1 µM: 92.2%
le-11, +1 site, 1 uM, replicates, read-out: pACGC formation, % inhibition
  inhibition at 1 µM: 32.4%
le-11, +1 site, 1 uM, replicates, read-out: pACGCG formation, % inhibition
  inhibition at 1 µM: 96.1%
0.00390625 uM, replicates
  pGCG formation, % inhbition: 23.7355% and 15.5622%
  pGCGA formation, % inhbition: 16.5629% and 19.135%
  pGCGAA formation, % inhbition: 30.4505% and 24.1004%
0.0078125 uM, replicates
  pGCG formation, % inhbition: 29.8775% and 21.4895%
  pGCGA formation, % inhbition: 17.4928% and 21.885%
  pGCGAA formation, % inhbition: 52.8128% and 27.8666%
0.015625 uM, replicates
  pGCG formation, % inhbition: 50.6818% and 35.2042%
  pGCGA formation, % inhbition: 18.8117% and 25.399%
  pGCGAA formation, % inhbition: 51.4133% and 43.0842%
0.03125 uM, replicates
  pGCG formation, % inhbition: 80.9404% and 57.9787%
  pGCGA formation, % inhbition: 58.0899% and 36.3323%
  pGCGAA formation, % inhbition: 92.0704% and 68.8528%
0.0625 uM, replicates
  pGCG formation, % inhbition: 96.7556% and 96.0463%
  pGCGA formation, % inhbition: 77.4419% and 86.4681%
  pGCGAA formation, % inhbition: 98.2035% and 97.0821%
0.125 uM, replicates
  pGCG formation, % inhbition: 97.7751% and 97.5727%
  pGCGA formation, % inhbition: 83.7601% and 82.1258%
  pGCGAA formation, % inhbition: 98.5207% and 97.9021%
0.25 uM, replicates
  pGCG formation, % inhbition: 97.8446% and 96.8207%
  pGCGA formation, % inhbition: 81.8016% and 75.4758%
  pGCGAA formation, % inhbition: 98.388% and 97.2094%
0.5 uM, replicates
  pGCG formation, % inhbition: 96.68% and 97.1903%
  pGCGA formation, % inhbition: 77.4429% and 81.101%
  pGCGAA formation, % inhbition: 98.095% and 97.9035%
1 uM, replicates
  pGCG formation, % inhbition: 97.6913% and 97.6125%
  pGCGA formation, % inhbition: 86.6689% and 82.9875%
  pGCGAA formation, % inhbition: 98.8723% and 98.1005%
le-11 and tr-14 templates, +1 and +3 site, read-out: IC50 values in the SNI assays
  IC50: 17 to 32 nM
[2]
  pACG formation, % inhibition: 31.6%
  pACGAG formation, % inhibition: 12.8614% and 26.6827%
tr-14, +1 site, 0.00390625 uM, replicates, read-out: pACG formation, % inhibition
  inhibition at 0.00390625 µM: 28.1%
[3]
  pACG formation, % inhibition: 29.3%
  pACGAG formation, % inhibition: 35.8415%
tr-14, +1 site, 0.0078125 uM, replicates, read-out: pACG formation, % inhibition
  inhibition at 0.0078125 µM: 41.6%
tr-14, +1 site, 0.0078125 uM, replicates, read-out: pACGAG formation, % inhibition
  inhibition at 0.0078125 µM: 21.3%
[4]
  pACG formation, % inhibition: 48.5%
  pACGAG formation, % inhibition: 57.7598%
tr-14, +1 site, 0.015625 uM, replicates, read-out: pACG formation, % inhibition
  inhibition at 0.015625 µM: 62.7%
tr-14, +1 site, 0.015625 uM, replicates, read-out: pACGAG formation, % inhibition
  inhibition at 0.015625 µM: 50.6%
[5]
  pACG formation, % inhibition: 79.8%
  pACGAG formation, % inhibition: 90.4225%
tr-14, +1 site, 0.03125 uM, replicates, read-out: pACG formation, % inhibition
  inhibition at 0.03125 µM: 93.9%
tr-14, +1 site, 0.03125 uM, replicates, read-out: pACGA formation, % inhibition
  inhibition at 0.03125 µM: 19.2%
tr-14, +1 site, 0.03125 uM, replicates, read-out: pACGAG formation, % inhibition
  inhibition at 0.03125 µM: 92.2%
[6]
  pACG formation, % inhibition: 93.7%
  pACGAG formation, % inhibition: 96.2948%
tr-14, +1 site, 0.0625 uM, replicates, read-out: pACG formation, % inhibition
  inhibition at 0.0625 µM: 95.6%
tr-14, +1 site, 0.0625 uM, replicates, read-out: pACGA formation, % inhibition
  inhibition at 0.0625 µM: 23%
tr-14, +1 site, 0.0625 uM, replicates, read-out: pACGAG formation, % inhibition
  inhibition at 0.0625 µM: 95.3%
[7]
  pACG formation, % inhibition: 94.1%
  pACGAG formation, % inhibition: 96.5623%
tr-14, +1 site, 0.125 uM, replicates, read-out: pACG formation, % inhibition
  inhibition at 0.125 µM: 95.7%
tr-14, +1 site, 0.125 uM, replicates, read-out: pACGA formation, % inhibition
  inhibition at 0.125 µM: 18.9%
tr-14, +1 site, 0.125 uM, replicates, read-out: pACGAG formation, % inhibition
  inhibition at 0.125 µM: 95.9%
[8]
  pACG formation, % inhibition: 94.4%
  pACGAG formation, % inhibition: 96.9953%
tr-14, +1 site, 0.25 uM, replicates, read-out: pACG formation, % inhibition
  inhibition at 0.25 µM: 95.3%
tr-14, +1 site, 0.25 uM, replicates, read-out: pACGA formation, % inhibition
  inhibition at 0.25 µM: 21.3%
tr-14, +1 site, 0.25 uM, replicates, read-out: pACGAG formation, % inhibition
  inhibition at 0.25 µM: 96.3%
[9]
  pACG formation, % inhibition: 93.2%
  pACGAG formation, % inhibition: 97.0094%
tr-14, +1 site, 0.5 uM, replicates, read-out: pACG formation, % inhibition
  inhibition at 0.5 µM: 93.9%
tr-14, +1 site, 0.5 uM, replicates, read-out: pACGAG formation, % inhibition
  inhibition at 0.5 µM: 95.7%
[10]
  pACG formation, % inhibition: 91.9%
  pACGAG formation, % inhibition: 97.3064%
tr-14, +1 site, 1 uM, replicates, read-out: pACG formation, % inhibition
  inhibition at 1 µM: 92.2%
tr-14, +1 site, 1 uM, replicates, read-out: pACGA formation, % inhibition
  inhibition at 1 µM: 39%
tr-14, +1 site, 1 uM, replicates, read-out: pACGAG formation, % inhibition
  inhibition at 1 µM: 97%
